From EP0407583A1, “DERIVATIVES OF DICHLOR[…] ACYLAMIDO[…] AND INSECTICIDAL, FU[…] HEMATOCIDAL PREPARATIONS BASED ON THEM” (priority 1989, dated 1990)

Tests used:
Candida tropicalis [1] = assay: Fungicidal activity, large-scale test on contaminated surfaces and fabrics; assay type: cell-based; settings: composition 0.01 % by mass; surfaces of ceramics, metal, wood, rubber, fabrics
Protocol: (§1) The large-scale tests were carried out by using Candida albicans and Candida tropicalis strains 2-day culture of which was diluted with an isotonic solution of sodium chloride to the concentration of 5x10^7 cells in 1 ml.
(§2) The suspended cell culture was applied onto the surface (7 mm in diameter) of articles made of ceramics, metal, wood and rubber as well as cotton, flannel woollen fabrics which were presterillized.
(§3) In a day after incubating from the treated surfaces, the washings were taken with a cotton-gauze tampon wetted with Sabouraud^ts liquid medium, immersed into the tubes with a similar medium and placed into a thermostat at 37 °C for two days. Thereafter, the inoculum was introduced in Sabouraud's stiff agar, and the growth records were made by a conventional procedure.

Candida albicans [2] = assay: as above; assay type: cell-based; settings: composition 0.01 % by mass; surfaces of ceramics, metal, wood, rubber, fabrics
Protocol: as §1, §2, §3

Candida tropicalis [3] = assay: Fungicidal activity, laboratory test on Sabouraud medium; assay type: cell-based; settings: composition 0.01 % by mass in distilled water
Protocol: A fungicidal composition based on this compound was prepared which was a solution of it in distilled water at the concentration pf 0.01 % by mass. A fungicidal activity of the composition, according to the invention, was tested in laboratory conditions for inhibiting the growth of fungi such as Candida tropicalis affecting the macosal and skin coats, and internals.
To this, the Petri dishes containing the Sabouraud growth medium were inoculated with a suspension of microorganisms at the concentration of 5x10^7 cells of fungi in 1 ml.
The restricted surface areas (7 mm in diameter) were coated with the composition by means of a small metal spatula 4x4 mm in size. In a day of incubating at 37 °C in a thermostat, the composition inhibited the growth of yeast--like fungi. An antifungal activity of the composition was specified by a method of 10-fold serial dilution using Sabouraud's liquid medium in 2 ml of which 2x10^5 cells were introduced. After two days of incubation in the thermostat at 34 °C, a minimum dilution of the substance exerting a fungicidal effect was determined.

[4] = Toxicity LD50 of the compound; assay type: in vivo; settings: species and route not given
Solubility (qualitative) = settings: water, alcohols, acetone
Candida albicans [5] = assay: Fungicidal activity, laboratory test on Sabouraud medium; assay type: cell-based; settings: composition 0.01 % by mass in distilled water
mice and rats = settings: for mice and rats; cited from earlier work
gall nematodes = assay: Nematocidal effect, field test on affected tomato plants; assay type: in vivo; settings: 5 m^2 plots of tomato plants affected by nematodes
Protocol: In the field conditions, the plots of 5 m^2 in size of tomato plants affected by nematodes were treated with the claimed nematocidal compositions and the known nematocides.

[6] = system: invasion larvae of gall nematodes; assay: Nematocidal effect on invasion larvae, experimental (object glass) test; assay type: in vivo; settings: 1% solution in distilled water; 100 invasion larvae; 24 hours
Protocol: A nematocidal effect of the composition, according to the invention, was tested on invasion larvae of gall nematodes. To this end, 1 droplet of a suspension containing 100 invasion larvae of gall nematodes was placed onto the object glasses with cells. 1 droplet of the composition of the invention was added thereinto. 1 drop of distilled water was added to the control cell instead of the composition, according to the invention. The glasses with test and control cells were placed onto Petri dish with a moisten ashless filter, and 24 hours later the killed nematodes were recorded. The tests were 3-fold repeated. The study of a nematocidal activity was conducted in comparison with a known nematocidal composition based on 0,0-dimethyl-0-/2-(N,N'-diethylcarbamoyl)-1-methyl-2-chlorovinyl/ /phosphate.

[7] = system: leaves of tomato and cucumber; assay: Phytotoxic effect on leaves; assay type: in vivo; settings: nematocidal composition, 1% solution in distilled water
Alternaria sobani [8] = assay: Inhibition of phytopathogenic fungi, field test on affected potato plants; assay type: in vivo; settings: 5 m^2 plots of affected potato plants sprayed
How it was run: (§4)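 Field plots of 5 m^2 holding potato plants infected with a range of fungal pathogens were sprayed with the fungicide. Comparison plots of affected plants received known compositions.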

Rhyzoctonia violaceae [9] = assay: as above; assay type: in vivo; settings: 5 m^2 plots of affected potato plants sprayed
How it was run: as §4

Fusarium culmorum [10] = assay: as above; assay type: in vivo; settings: 5 m^2 plots of affected potato plants sprayed
How it was run: as §4

Aspergillus fumigatis [11] = assay: as above; assay type: in vivo; settings: 5 m^2 plots of affected potato plants sprayed
How it was run: as §4

Venturia inaequalis [12] = assay: as above; assay type: in vivo; settings: 5 m^2 plots of affected potato plants sprayed
How it was run: as §4

Fusarium oxysporum [13] = assay: as above; assay type: in vivo; settings: 5 m^2 plots of affected potato plants sprayed
How it was run: as §4

Rhyzoctonia aderholdii [14] = assay: as above; assay type: in vivo; settings: 5 m^2 plots of affected potato plants sprayed
How it was run: as §4

Aspergillus niger [15] = assay: as above; assay type: in vivo; settings: 5 m^2 plots of affected potato plants sprayed
How it was run: as §4

Botrytis cinereae [16] = assay: as above; assay type: in vivo; settings: 5 m^2 plots of affected potato plants sprayed
How it was run: as §4

Botrytis allii [17] = assay: as above; assay type: in vivo; settings: 5 m^2 plots of affected potato plants sprayed
How it was run: as §4

Diplodia zeae [18] = assay: as above; assay type: in vivo; settings: 5 m^2 plots of affected potato plants sprayed
How it was run: as §4

Verticillium albo-atrum [19] = assay: as above; assay type: in vivo; settings: 5 m^2 plots of affected potato plants sprayed
How it was run: as §4

Rhoma betae [20] = assay: as above; assay type: in vivo; settings: 5 m^2 plots of affected potato plants sprayed
How it was run: as §4

Penicillium cyclopium [21] = assay: as above; assay type: in vivo; settings: 5 m^2 plots of affected potato plants sprayed
How it was run: as §4

Fusarium moniliforme [22] = assay: as above; assay type: in vivo; settings: 5 m^2 plots of affected potato plants sprayed
How it was run: as §4

Alternaria sobani [23] = assay: Inhibition of phytopathogenic fungi growth, laboratory test on potato-dextrose agar; assay type: cell-based; settings: active principle 0.01 % by mass in potato-dextrose agar
How it was run: (§5)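 Composition added to potato-dextrose agar at 0.01% by mass active principle, then plates inoculated with fungal mycelium. Growth inhibition judged against untreated agar controls and reference fungicides (dichloronaphthoquinone, zineb-type dithiocarbamate, thiram).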

Rhyzoctonia violaceae [24] = assay: as above; assay type: cell-based; settings: active principle 0.01 % by mass in potato-dextrose agar
How it was run: as §5

Fusarium culmorum [25] = assay: as above; assay type: cell-based; settings: active principle 0.01 % by mass in potato-dextrose agar
How it was run: as §5

Aspergillus fumigatis [26] = assay: as above; assay type: cell-based; settings: active principle 0.01 % by mass in potato-dextrose agar
How it was run: as §5

Venturia inaequalis [27] = assay: as above; assay type: cell-based; settings: active principle 0.01 % by mass in potato-dextrose agar
How it was run: as §5

Fusarium oxysporum [28] = assay: as above; assay type: cell-based; settings: active principle 0.01 % by mass in potato-dextrose agar
How it was run: as §5

Rhyzoctonia aderholdii [29] = assay: as above; assay type: cell-based; settings: active principle 0.01 % by mass in potato-dextrose agar
How it was run: as §5

Aspergillus niger [30] = assay: as above; assay type: cell-based; settings: active principle 0.01 % by mass in potato-dextrose agar
How it was run: as §5

Botrytis cinereae [31] = assay: as above; assay type: cell-based; settings: active principle 0.01 % by mass in potato-dextrose agar
How it was run: as §5

Botrytis allii [32] = assay: as above; assay type: cell-based; settings: active principle 0.01 % by mass in potato-dextrose agar
How it was run: as §5

Diplodia zeae [33] = assay: as above; assay type: cell-based; settings: active principle 0.01 % by mass in potato-dextrose agar
How it was run: as §5

Verticillium albo-atrum [34] = assay: as above; assay type: cell-based; settings: active principle 0.01 % by mass in potato-dextrose agar
How it was run: as §5

Rhoma betae [35] = assay: as above; assay type: cell-based; settings: active principle 0.01 % by mass in potato-dextrose agar
How it was run: as §5

Penicillium cyclopium [36] = assay: as above; assay type: cell-based; settings: active principle 0.01 % by mass in potato-dextrose agar
How it was run: as §5

Fusarium moniliforme [37] = assay: as above; assay type: cell-based; settings: active principle 0.01 % by mass in potato-dextrose agar
How it was run: as §5

O=C(NP(=O)(Sc1ccc(Cl)cc1)Sc1ccc(Cl)cc1)C(Cl)(Cl)CCl [Example 9, di--para-chlorothiophenyl ether of α, α,β-trichloropropio- nylamidophosphoric acid]
Inhibition of growth of fungal colonies, % Candida tropicalis tests large-scale (Candida tropicalis [1]): 100%
Inhibition of growth of fungal colonies, % Candida albicans tests large-scale (Candida albicans [2]): 100%
Inhibition of growth of fungal colonies, % Candida tropicalis tests laboratory (Candida tropicalis [3]): 100%
LD50 [4]: 670 ml/k^g
solubility (Solubility (qualitative)): soluble in water, alcohols, acetone
Inhibition of growth of fungal colonies, % Candida albicans tests laboratory (Candida albicans [5]): 100%

COP(=O)(OC)C(O)C(Cl)(Cl)Cl (centres unmarked) [Known composition, 0,0-dimethyl(1-hydroxy-2,2,2-trichloroethyl)phosphonate]
LD50 (mice and rats): 225 to 1200 mg/kg

O=C(NP(=O)(Nc1ccc(Cl)cc1)Nc1ccc(Cl)cc1)c1ccc(Br)cc1 [Example 18, para-bromobenzoylamidophosphoric acid di-para-chloroanilide]
Death of larvae, %, conditions field (gall nematodes): 92%
solubility (Solubility (qualitative)): soluble in water, alcohols, acetone
Death of larvae, %, conditions experimental [6]: 89%

O=C(NP(=O)(NNc1ccccc1)NNc1ccccc1)c1ccc(Cl)cc1 [Example 10, para--chlorobenzoylamidophosphoric acid diphenyl hydrazide]
Inhibition of growth of fungal colonies, % Candida tropicalis tests large-scale (Candida tropicalis [1]): 100%
Inhibition of growth of fungal colonies, % Candida albicans tests large-scale (Candida albicans [2]): 100%
Inhibition of growth of fungal colonies, % Candida tropicalis tests laboratory (Candida tropicalis [3]): 0%
solubility (Solubility (qualitative)): soluble in water, alcohols, acetone
Inhibition of growth of fungal colonies, % Candida albicans tests laboratory (Candida albicans [5]): 100%

O=C(NP(=O)(Nc1ccccc1Cl)Nc1ccccc1Cl)c1ccc(Br)cc1 [Example 17, para-bromobenzoylamidophosphoric acid di-ortho-chloroanilide]
Death of larvae, %, conditions field (gall nematodes): 100%
phytotoxical effect on leaves of tomato and cucumber [7]: no phytotoxical effect
solubility (Solubility (qualitative)): soluble in water, alcohols, acetone
Death of larvae, %, conditions experimental [6]: 100%

O=C(NP(=O)(Nc1ccc(Cl)cc1[N+](=O)[O-])Nc1ccc(Cl)cc1[N+](=O)[O-])c1ccc(Br)cc1 [Example 16, para-bromobenzoylamidophosphoric acid di-para-chloro-ortho--nitroanilide]
Inhibition of growth of phytopathogenic fungi colonies, % Alternaria sobani test field (Alternaria sobani [8]): 98%
Inhibition of growth of phytopathogenic fungi colonies, % Rhyzoctonia violaceae test field (Rhyzoctonia violaceae [9]): 86%
Inhibition of growth of phytopathogenic fungi colonies, % Fusarium culmorum Tests field (Fusarium culmorum [10]): 99%
Inhibition of growth of phytopathogenic fungi colonies, % Aspergillus fumigatis Tests field (Aspergillus fumigatis [11]): 91%
Inhibition of growth of phytopathogenic fungi colonies, % Venturia inaequalis test field (Venturia inaequalis [12]): 100%
Inhibition of growth of phytopathogenic fungi colonies, % Fusarium oxysporum test field (Fusarium oxysporum [13]): 97%
Inhibition of growth of phytopathogenic fungi colonies, % Rhyzoctonia aderholdii test field (Rhyzoctonia aderholdii [14]): 100%
Inhibition of growth of phytopathogenic fungi colonies, % Aspergillus niger test field (Aspergillus niger [15]): 100%
Inhibition of growth of phytopathogenic fungi colonies, % Botrytis cinereae test field (Botrytis cinereae [16]): 100%
Inhibition of growth of phytopathogenic fungi colonies, % Botrytis allii test field (Botrytis allii [17]): 100%
Inhibition of growth of phytopathogenic fungi colonies, % Diplodia zeae test field (Diplodia zeae [18]): 100%
Inhibition of growth of phytopathogenic fungi colonies, % Verticillium albo--atrum test field (Verticillium albo-atrum [19]): 100%
Inhibition of growth of phytopathogenic fungi colonies, % Rhoma betae test field (Rhoma betae [20]): 99%
Inhibition of growth of phytopathogenic fungi colonies, % Penicillium cyclopium Tests field (Penicillium cyclopium [21]): 79%
Inhibition of growth of phytopathogenic fungi colonies, % Fusatium monili-forme test field (Fusarium moniliforme [22]): 73%
Inhibition of growth of phytopathogenic fungi colonies, % Alternaria sobani test laboratory (Alternaria sobani [23]): 100%
Inhibition of growth of phytopathogenic fungi colonies, % Rhyzoctonia violaceae test laboratory (Rhyzoctonia violaceae [24]): 87%
Inhibition of growth of phytopathogenic fungi colonies, % Fusarium culmorum Tests laboratory (Fusarium culmorum [25]): 100%
Inhibition of growth of phytopathogenic fungi colonies, % Aspergillus fumigatis Tests laboratory (Aspergillus fumigatis [26]): 92%
Inhibition of growth of phytopathogenic fungi colonies, % Venturia inaequalis test laboratory (Venturia inaequalis [27]): 100%
Inhibition of growth of phytopathogenic fungi colonies, % Fusarium oxysporum test laboratory (Fusarium oxysporum [28]): 98%
Inhibition of growth of phytopathogenic fungi colonies, % Rhyzoctonia aderholdii test laboratory (Rhyzoctonia aderholdii [29]): 100%
Inhibition of growth of phytopathogenic fungi colonies, % Aspergillus niger test laboratory (Aspergillus niger [30]): 100%
Inhibition of growth of phytopathogenic fungi colonies, % Botrytis cinereae test laboratory (Botrytis cinereae [31]): 100%
Inhibition of growth of phytopathogenic fungi colonies, % Botrytis allii test laboratory (Botrytis allii [32]): 100%
Inhibition of growth of phytopathogenic fungi colonies, % Diplodia zeae test laboratory (Diplodia zeae [33]): 100%
Inhibition of growth of phytopathogenic fungi colonies, % Verticillium albo--atrum test laboratory (Verticillium albo-atrum [34]): 100%
Inhibition of growth of phytopathogenic fungi colonies, % Rhoma betae test laboratory (Rhoma betae [35]): 100%
Inhibition of growth of phytopathogenic fungi colonies, % Penicillium cyclopium Tests laboratory (Penicillium cyclopium [36]): 80%
Inhibition of growth of phytopathogenic fungi colonies, % Fusatium monili-forme test laboratory (Fusarium moniliforme [37]): 74%
solubility (Solubility (qualitative)): soluble in water, alcohols, acetone
